Columns and labels:
[1] = tested on: Plasmodium falciparum; test: Antiplasmodial activity against chloroquine-sensitive Plasmodium falciparum 3D7 after 48 hrs; format: functional, organism-based; settings: 3D7, 48 h
[2] = Inhibition of Saccharomyces cerevisiae FTase after 15 mins by fluorimetric analysis
[3] = tested on: Plasmodium falciparum; test: Antiplasmodial activity against chloroquine-resistant Plasmodium falciparum FcB1 after 48 hrs; format: functional, organism-based; settings: FcB1/Columbia
[4] = tested on: Vero; test: Cytotoxicity against african green monkey Vero cells assessed as inhibition of [3H]hypoxanthine incorporation after 48 hrs; format: cell-based; settings: Chlorocebus sabaeus
[5] = target: T1, Phospholipase A2 (Apis mellifera, UniProt P00630); test: Inhibition of bee venom phospholipase A2 after 5 mins by spectrophotometric analysis
T1 sequence (P00630 whole entry): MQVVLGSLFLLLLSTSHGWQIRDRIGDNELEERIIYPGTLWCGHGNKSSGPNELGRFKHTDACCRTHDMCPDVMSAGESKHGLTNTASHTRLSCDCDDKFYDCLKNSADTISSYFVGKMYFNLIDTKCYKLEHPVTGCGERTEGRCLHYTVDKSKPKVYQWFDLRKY

[6] = target: Protein farnesyltransferase (Homo sapiens, UniProt P49354+P49356); test: Inhibition of human FTase after 15 mins by fluorimetric analysis; format: protein-complex assay

Row | Structure (SMILES) | IC50 [1] [µM] | IC50 [2] [µM] | IC50 [3] [µM] | IC50 [4] [µM] | IC50 [5] [µM] | IC50 [6] [µM]
1 | C[C@@]12CCC(=O)/C(=C\NCCc3ccccc3)C1=C(O)C(=O)c1cc3c(cc12)C(=O)C=CC3=O | 2.1 | 0.31 | 8.8 | 4.7 | 17.7 | 0.44
2 | C[C@@]12CCC(=O)c3coc(c31)C(=O)c1cc3c(cc12)C(=O)C=CC3=O [HELENAQUINONE] | 30 | 1.6 | > 30 | > 60 | – | –
3 | CCCCCN/C=C1\C(=O)CC[C@]2(C)C1=C(O)C(=O)c1cc3c(cc12)C(=O)C=CC3=O | 7.4 | 0.041 | 9.2 | 6.3 | 23.9 | 0.057
4 | CC1=CCCC2(C)C1=C(O)C(=O)c1cc3c(cc12)C(=O)C=CC3=O (stereo unspecified) [ORHALQUINONE] | – | 0.4 | – | > 62 | – | –
5 | CC(C)(C)OC(=O)NCCN/C=C1\C(=O)CC[C@]2(C)C1=C(O)C(=O)c1cc3c(cc12)C(=O)C=CC3=O | – | – | 52.8 | 7.4 | 12.8 | –
6 | CC(C)=CCC/C(C)=C/CN/C=C1\C(=O)CC[C@]2(C)C1=C(O)C(=O)c1cc3c(cc12)C(=O)C=CC3=O | 0.53 | 0.017 | 0.62 | 8.6 | 34.4 | 0.031
7 | COC(=O)CN/C=C1\C(=O)CC[C@]2(C)C1=C(O)C(=O)c1cc3c(cc12)C(=O)C=CC3=O | 16.5 | – | 55.8 | 13.4 | 76.8 | –
